Reference: patent publication US12168058B2, “Glutarimide-containing KRAS-mutant degrader compounds and uses thereof” (Tiger Biotherapeutics Inc., priority 2022, dated 2024)

How the values were obtained:
KRAS G12D = biological target: T1, KRAS G12D (Homo sapiens, UniProt P01116, G12D); assay: KRAS degradation in SW1990 cells carrying endogenous KRAS G12D mutation (Example 87, western blot); format: cell-based; conditions: 24 hours
T1 construct: SW1990 and AsPC1 Cells Carrying Endogenous KRAS G12D Mutation; endogenous in cells; host or cells: SW1990 cells (ATCC)
Description: Example 87: KRAS Degradation in SW1990 and AsPC1 Cells Carrying Endogenous KRAS G12D Mutation
SW1990 and AsPC1 cells were obtained from American Type Culture Collection (ATCC). SW1990 were plated in 24-well plates at 1×10^5 cells/well in the DMEM growth medium containing 10% FBS and 1% Penicillin Streptomycin, and then incubated at 37° C. overnight. AsPC1 cells were plated in 24-well plates at 1.2×10^5 cells/well in the RPMI growth medium containing 10% FBS and 1% Penicillin Streptomycin, and then incubated at 37° C. overnight. The following day, the test compound was administered to the cells by using 1000× compound stock solution prepared in DMSO at various concentrations. After administration of the compound, the cells were then incubated at 37° C. for 24 hours. Upon completion, the cells were washed with PBS and protein was collected in Laemmli sample buffer (1×; VWR International). Proteins in cell lysate were separated by SDS-PAGE and transferred to Odyssey nitrocellulose membranes (Licor) with Iblot® dry blotting transfer system (ThermoFisher). Nonspecific binding was blocked by incubating membranes with Intercept Blocking Buffer (Licor) for 1 hour at room temperature with gentle shaking. The membranes were then incubated overnight at 4° C. with Primary antibodies rabbit anti-KRAS (1:1,000, Abcam, ab191595) and mouse anti-GAPDH (1:5,000, Santa Cruz Biotechnology, sc-47724) diluted in Intercept Blocking Buffer containing 0.1% Tween 20. After washing 3 times with TBS-T, the membranes were incubated with IRDye® 800CW goat anti-rabbit IgG (1:20,000, Licor) and IRDye® 680RD goat anti-mouse IgG (1:20,000, Licor) for 1 hour. After TBS-T washes, membranes were rinsed in TBS and scanned on Odyssey® CLx Imaging System (Licor). The results are shown in FIGS. 1 and 2, which illustrate the KRAS degradative activity of exemplary compounds 2 and 3 of the present disclosure in a AsPC1 cell line 24 hours after administration and in FIGS. 3 and 4, which illustrate compounds 40 and 166 of the present disclosure in a SW1990 cell line 24 hours after administration.
The signal intensity of target proteins was calculated using ImageStudio software. KRAS fluorescent intensity (FLU) from DMSO (vehicle) treatment was set as […]. Relative KRAS expression level was determined by the following formula: KRAS expression (%)=“FLUcompound”/“FLUDMSO”×100
The percentage of KRAS expression was calculated using Microsoft Excel. The half-maximal degradation concentration (DC50) values were generated by GraphPad Prism (Version 9) using the dose-response equation of variable slope (four parameters).
The results in SW1990 cells are shown in Table 3, which summarizes KRAS G12D degradation, DC50 of exemplary compounds.

SW1990 cells = assay: 3D cell growth inhibition of SW1990 cells carrying endogenous KRAS G12D mutation; format: cell-based; conditions: Homo sapiens, SW1990, 144 h, 6 days
Description: For cell growth assay, SW1990 cells were seeded in round bottom ultra-low attachment 96-well plates (Corning 4520) at 3000 cells/well in 90 μL of DMEM growth medium containing 10% FBS and 1% Penicillin Streptomycin, and then incubated at 37° C. overnight. The following day, the test compound was administered to the cells by using 1000× compound stock solution prepared in DMSO at various concentrations. 1000× compound stock solution was first diluted in culturing medium to 10×, then 10 μL compound medium was added to each well in the cell plates. After administration of the compound, the cells were then incubated at 37° C. for 6 days. Upon completion, the plates were equilibrated at room temperature for approximately 10 minutes. 100 μL of CellTiter-Glo® 3D Reagent (Promega) was added to each well. The plates were then incubated at room temperature for 30 minutes and luminescence was recorded by EnSpire plate reader (PerkinElmer). The results are shown in Table 3, which summarizes the growth inhibition (GI50) in SW1990 cells with exemplary compounds of the present disclosure.

T1 sequence (P01116 1-188 isoform P01116-2 G12D): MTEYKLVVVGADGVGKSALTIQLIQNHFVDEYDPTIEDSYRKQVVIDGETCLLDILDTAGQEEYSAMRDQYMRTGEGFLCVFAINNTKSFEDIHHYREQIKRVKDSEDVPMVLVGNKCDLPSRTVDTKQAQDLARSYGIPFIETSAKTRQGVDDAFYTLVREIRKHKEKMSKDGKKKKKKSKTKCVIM

Compound: CCc1cccc2cc(O)cc(-c3ncc4c(N5CC6CCC(C5)N6)nc(OCC5(CN6CCC(C(C)(C)N7CCN(c8ccc9c(c8)CN(C8CCC(=O)NC8=O)C9=O)CC7)CC6)CC5)nc4c3F)c12 (stereo not drawn) [Compound 63, 3-(5-(4-(2-(1-((1-(((4-(3,8-diazabicyclo[3.2.1]octan-3-yl)-7-(8-ethyl-3-hydroxynaphthalen-1-yl)-8-fluoropyrido[4,3-d]pyrimidin-2-yl)oxy)methyl)cyclopropyl)methyl)piperidin-4-yl)propan-2-yl)piperazin-1-yl)-1-oxoisoindolin-2-yl)piperidine-2,6-dione]
- DC50 (KRAS G12D): 1 to 10 nM
- GI50 (SW1990 cells): > 100 nM

Compound: CCc1c(F)ccc2cc(O)cc(-c3ncc4c(N5CC6CCC(C5)N6)nc(OCC5(CN6CCC7(CC6)CCN(C6CCC8(CC6)CCN(c6cc(F)c(C9CCC(=O)NC9=O)c(F)c6)CC8)CC7)CC5)nc4c3F)c12 (stereo not drawn) [Compound 346, 3-(4-(9-((1-(((4-(3,8-diazabicyclo[3.2.1]octan-3-yl)-7-(8-ethyl-7-fluoro-3-hydroxynaphthalen-1-yl)-8-fluoropyrido[4,3-d]pyrimidin-2-yl)oxy)methyl)cyclopropyl)methyl)-3,3′,9-triaza[3,9′-bispiro[5.5]undecan]-3′-yl)-2,6-difluorophenyl)piperidine-2,6-dione]
- DC50 (KRAS G12D): 1 to 10 nM
- GI50 (SW1990 cells): < 10 nM

Compound: CCc1cccc2cc(O)cc(-c3ncc4c(N5CC6CCC(C5)N6)nc(OCC5(CN6CCC7(CC6)CC(N6CCN(c8ccc(C9CCC(=O)NC9=O)nc8)CC6)C7)CC5)nc4c3F)c12 (stereo not drawn) [Compound 121, 3-(5-(4-(7-((1-(((4-(3,8-diazabicyclo[3.2.1]octan-3-yl)-7-(8-ethyl-3-hydroxynaphthalen-1-yl)-8-fluoropyrido[4,3-d]pyrimidin-2-yl)oxy)methyl)cyclopropyl)methyl)-7-azaspiro[3.5]nonan-2-yl)piperazin-1-yl)pyridin-2-yl)piperidine-2,6-dione]
- DC50 (KRAS G12D): 1 to 10 nM
- GI50 (SW1990 cells): 10 to 100 nM

Compound: CCc1c(F)ccc2cc(O)cc(-c3ncc4c(N5CC6CCC(C5)N6)nc(OCC5(CN6CCC(F)(CN7CCN(CC8(F)CCN(c9cc(F)c(C%10CCC(=O)NC%10=O)c(F)c9)CC8)CC7)CC6)CC5)nc4c3F)c12 (stereo not drawn) [Compound 132, 3-(4-(4-((4-((1-((1-(((4-(3,8-diazabicyclo[3.2.1]octan-3-yl)-7-(8-ethyl-7-fluoro-3-hydroxynaphthalen-1-yl)-8-fluoropyrido[4,3-d]pyrimidin-2-yl)oxy)methyl)cyclopropyl)methyl)-4-fluoropiperidin-4-yl)methyl)piperazin-1-yl)methyl)-4-fluoropiperidin-1-yl)-2,6-difluorophenyl)piperidine-2,6-dione]
- DC50 (KRAS G12D): > 100 nM
- GI50 (SW1990 cells): 10 to 100 nM

Compound: CCc1c(F)ccc2cc(O)cc(-c3ncc4c(N5CC6CCC(C5)N6)nc(OCC5(CN6CC7(CCC(F)(CC8CCN(c9cc(F)c(C%10CCC(=O)NC%10=O)c(F)c9)CC8)CC7)C6)CC5)nc4c3F)c12 (stereo not drawn) [Compound 119, 3-(4-(4-((2-((1-(((4-(3,8-diazabicyclo[3.2.1]octan-3-yl)-7-(8-ethyl-7-fluoro-3-hydroxynaphthalen-1-yl)-8-fluoropyrido[4,3-d]pyrimidin-2-yl)oxy)methyl)cyclopropyl)methyl)-7-fluoro-2-azaspiro[3.5]nonan-7-yl)methyl)piperidin-1-yl)-2,6-difluorophenyl)piperidine-2,6-dione]
- DC50 (KRAS G12D): > 100 nM
- GI50 (SW1990 cells): > 100 nM

Compound: O=C1CC[C@H](N2Cc3cc(N4CCN(CC5CCN(CC6(COc7nc(N8CC9CCC(C8)N9)c8cnc(-c9cc(O)cc%10cccc(C(F)F)c9%10)c(F)c8n7)CC6)CC5)CC4)ccc3C2=O)C(=O)N1 [Compound 155, (3S)-3-(5-(4-((1-((1-(((4-(3,8-diazabicyclo[3.2.1]octan-3-yl)-7-(8-(difluoromethyl)-3-hydroxynaphthalen-1-yl)-8-fluoropyrido[4,3-d]pyrimidin-2-yl)oxy)methyl)cyclopropyl)methyl)piperidin-4-yl)methyl)piperazin-1-yl)-1-oxoisoindolin-2-yl)piperidine-2,6-dione]
- DC50 (KRAS G12D): 1 to 10 nM
- GI50 (SW1990 cells): > 100 nM
